The source of these data is PMC10552397 (Cell Communication and Signaling : CCS, 2023).

Where two headings read alike, the source gives them in different places.

One assay relates to HeLa GRASP55 KO cells. Kind of assay: cells. The note with it: Homo sapiens, read-out: IC50 value GRASP55 KO.
Another assay deals with T1, EFEMP1 (Homo sapiens, UniProt Q12805).
T1 construct: endogenous in cells; host or cells: HeLa wt cells
T1 sequence (Q12805 18-493): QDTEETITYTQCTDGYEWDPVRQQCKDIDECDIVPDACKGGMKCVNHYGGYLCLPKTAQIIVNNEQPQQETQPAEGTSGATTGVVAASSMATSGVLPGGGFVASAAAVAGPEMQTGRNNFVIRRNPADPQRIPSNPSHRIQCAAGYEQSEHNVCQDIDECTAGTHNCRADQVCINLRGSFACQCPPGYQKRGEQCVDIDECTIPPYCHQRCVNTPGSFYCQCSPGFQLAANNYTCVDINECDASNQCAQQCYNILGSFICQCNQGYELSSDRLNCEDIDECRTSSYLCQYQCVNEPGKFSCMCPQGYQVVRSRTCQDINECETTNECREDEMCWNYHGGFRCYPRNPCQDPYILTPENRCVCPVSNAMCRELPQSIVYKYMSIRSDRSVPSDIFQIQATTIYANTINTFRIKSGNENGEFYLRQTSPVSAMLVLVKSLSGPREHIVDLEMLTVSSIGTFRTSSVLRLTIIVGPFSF
Kind of assay: TPP-TR/RTSA, EFEMP1. Type of assay: binding. The procedure: TPP was performed essentially as described, but with major modifications to the TMT labeling sets and statistical data analysis for TPP-TR.
Adherent cells were washed in the dish once with DPBS and harvested by Trypsin–EDTA (0.25%, Thermo Fisher Scientific, Waltham, MA, USA, #25,200,056) treatment. […]
After temperature treatment, samples were supplemented with lysis buffer (final concentrations: 0.36 U/µL benzonase, 1.5 mM MgCl2, 1 mM Na3VO4, 10 mM NaF, 2.5 mM Na4P2O7, 0.8% w/v NP-40) for 1 h on ice. […] The total protein concentration of the resulting cell extracts containing the fraction of soluble, non-denatured proteins was determined (Pierce 660 nm Protein Assay, BSA as standard). […] The two (37 °C or 50 °C) x ten (concentrations) x three (replicates) = 60 TPP-CCR samples and two (treatment and control) x ten (temperatures) x three (replicates) = 60 TPP-TR samples were analyzed by LC–MS/MS. GRASP55 was additionally quantified from the TPP-TR samples by immunoblotting as described in the respective section.
For TPP-CCR, SP3 was performed as described with slight modifications to the original protocol using on average 5 µg total protein per sample and resulting in theoretically 5 µg peptides in 22 µL 50 mM triethylammonium bicarbonate per sample. […] This volume was calculated such that the lowest two temperature samples (36.5 °C and 41.2 °C) contained 10 µg total protein on average. […]

Method for HeLa GRASP55 KO cells: Cell viability was measured using the MTT (3-(4,5-dimethylthiazol-2-yl)-2,5-diphenyltetrazolium bromide) assay. HeLa cells were seeded in 96-well plates with a density of 5*10^3 cells/well. […] After the incubation time, 20 µL of a 5 mg/mL MTT stock solution (ROTH, Karlsruhe, Germany, #4022.3) were added to the cells and they were incubated at 37 °C and 5% CO2 in a humidified atmosphere for 30 min. Upon removal of the MTT-containing medium 100 µL DMSO per well were added for extraction of the formazan. Absorbance was measured at 570 nm and 650 nm (reference) with a microplate reader (SynergyMx, BioTek, Winooski, VT, USA). After subtraction of the reference value, the mean of the absorbance of the solvent control was set as 100% and the relative viability was calculated for each sample.
GRASP55 KO cells were generated using the CRISPR/Cas9 system developed by the Zhang lab [59]. Double-stranded DNA oligos (5´-[sequence]-3´, 3´-[sequence]-5´), encoding guide RNAs (gRNAs) against the target gene were cloned into the Bbsl restriction site of pSpCas9(BB)-2A-GFP (PX458) vector gifted from Feng Zhang (Addgene plasmid #48,138; http://n2t.net/addgene:48138; RRID:Addgene_48138). […]
All IC50 values were calculated using GraphPad Prism 7.01.

For the molecule `CCCCCC1=C/C(=C/c2[nH]c(-c3ccc[nH]3)cc2OC)N=C1C` [Prodigiosin, prodigiosin], the figures for the IC50 in the assay with HeLa GRASP55 KO cells (24 h) and in the assay on HeLa GRASP55 KO cells (72 h) were 1420 nM and 83.3 nM, respectively. The ΔTm at 0.1 µM on EFEMP1 (100 nM vs DMSO, 6 h, HeLa wt, read-out: Mean_dTm) was found to be 1.55 °C. Besides, the distancescore on EFEMP1 (RTSA distance score) was found to be 13.326.

In general, IC50 refers to the midpoint of a concentration-inhibition curve.
